The source of these data is patent publication US10874743B2, “IRAK degraders and uses thereof” (Kymera Therapeutics, Inc., priority 2017, dated 2020).

The target of this test is T1, IRAK4 (Homo sapiens, UniProt Q9NWZ3).
T1 sequence (Q9NWZ3 1-460): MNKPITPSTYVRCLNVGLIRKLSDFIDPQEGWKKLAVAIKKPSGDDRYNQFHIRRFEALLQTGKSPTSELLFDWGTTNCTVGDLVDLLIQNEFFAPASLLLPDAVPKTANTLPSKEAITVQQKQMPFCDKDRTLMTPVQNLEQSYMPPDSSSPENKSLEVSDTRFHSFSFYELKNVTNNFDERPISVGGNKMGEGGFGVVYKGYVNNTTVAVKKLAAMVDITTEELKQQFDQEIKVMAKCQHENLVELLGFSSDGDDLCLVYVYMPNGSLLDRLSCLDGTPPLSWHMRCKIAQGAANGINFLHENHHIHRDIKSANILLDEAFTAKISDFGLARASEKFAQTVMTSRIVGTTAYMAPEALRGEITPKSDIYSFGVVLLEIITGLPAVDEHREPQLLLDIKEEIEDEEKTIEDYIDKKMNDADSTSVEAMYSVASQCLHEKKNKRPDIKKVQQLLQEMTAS
As to the kind of experiment: THP-1 degradation assay (western blot, % IRAK4 degraded after 24 hours). It counts as cell-based. Details: endogenous in cells. To be noted: THP-1 cells. The method, then:
Compounds were reconstituted in DMSO to make stock solutions at concentration of 60 mM. THP-1 and OCI-LY10 cells were maintained in RPMI-1640 medium containing 10% FBS, 0.5 μM 2-ME or 20% FBS, 55 μM 2-ME, and 1% L-Glutamine respectively.
Cells were seeded into 6-well plates with 5e6 cells per well. 200 μL of diluted compounds were added to cells to the final concentration of 0.003-10 μM. After 4 or 24 hour-incubation at 37° C., cells were collected into 2 mL Eppendorf tubes and centrifuged at 1,000 rpm for 5 min. The cell pellets were washed with 1×DPBS once and resuspended in 60 μL lysis buffer. The cells were lysed on ice for 10 min, then centrifuged at 14,000 rpm for 10 min at 4° C. and the supernatants were collected for western blots. For THP-1 cells, the lysis buffer contained 40 mM pH 7.4 HEPES, 140 mM NaCl, 2.5 mM EDTA, 1% NP-40, 0.1% SDS, and protease inhibitor cocktail (Roche, Cat. No. 05892791001). For OCI-LY10 cells, RIPAbuffer (Thermo Fisher, 89900) with Halt Protease and Phosphatase Inhibitor Cocktail (Thermo Fisher, 78446) was applied.
The protein concentration of cell lysates was quantified with Pierce™ BCA Protein Assay Kit (Pierce, 23227). Albumin standards at different concentrations were prepared, involving 2,000 ug/mL, 1,500 ug/mL, 1,000 ug/mL, 750 ug/mL, 500 ug/mL, 250 ug/mL, 125 ug/mL, and 25 ug/mL. BCA working reagents were prepared by mixing BCA reagent A with reagent B in 50:1 ratio. 200 μL of the BCA working reagents were added to 25 μL of BCA standard or cell lysates in microplate, and mixed thoroughly on a plate shaker for 30 seconds. After incubation at 37° C. for 30 min, the absorbance of samples at 562 nm were measured with EnVision Plate Reader.
Protein lysates were prepared in NuPAGE™ LDS sample buffer and NuPAGE™ sample reducing agent, and incubated at 95° C. for 5 min. For western blots, 20-25 μg of total proteins were resolved in 4-12% Bis-Tris gels (Introgen, WG1403A) or 10% Bis-Tris Midi gels (Invitrogen, WG1202BOX) running with 1×MOPS SDS running buffer (Invitrogen, NP0001) or 1×MES SDS running buffer (Invitrogen, NP0002). The proteins were transferred to low fluorescence PVDF membranes using the Trans-Blot Turbo Transfer System. Membranes were then blocked in Odyssey blocking buffer at RT for 1 h followed by primary incubation at 4° C. overnight. The primary antibodies were IRAK1 rabbit monoclonal antibody (CST, #4504S, 1:500), IRAK3 rabbit polyclonal antibody (CST, #4369, 1:500), IRAK4 rabbit polyclonal antibody (CST, #4363S, 1:1,000), MyD88 rabbit monoclonal antibody (Abcam, Ab133739, 1:2,000), j3-actin mouse monoclonal antibody (Sigma, A5441, 10,000), and Gapdh mouse monoclonal antibody (Millipore, MAB374, 1:5,000). Membranes were washed three times with 1×TBST, and then incubated with IR Dye 800 CW Goat anti-rabbit (Licor, #926-32211) and IR Dye 700 CW Goat anti-mouse (Licor, #926-68070) secondary antibodies in 1:10,000 dilution at RT for 1 h. The western blot images were obtained using Odyssey Imaging System.
THP-1 results at 24 hours. The letter codes indicate the percentage of IRAK4 degraded after 24 hours: A (>50% degradation), B (>20-50% degradation) and C (<20% degradation)
For orientation: In western blotting, separated proteins are transferred to a membrane and probed.
With `O=C(COc1cccc2c1C(=O)N(C1CCC(=O)NC1=O)C2=O)NCCCCCOCCOCCCCCNC(=O)[C@H]1CC[C@H](NC(=O)c2cnc(Nc3ccc4cnccc4n3)cc2NC2CC2)CC1` (stereo partly drawn) [I-5], the “THP-1 24 h % IRAK4 Degradation” value was “B (>20-50% degradation)”. In the case of `O=C1CCC(N2C(=O)c3cccc(NCCOCCOCCOCCOCCN4CCN(CCOCC(F)CNC(=O)c5cnc(Nc6ccc7cnccc7n6)cc5NC5CC5)CC4)c3C2=O)C(=O)N1` (stereo not drawn) [I-47], the “THP-1 24 h % IRAK4 Degradation” value was “B (>20-50% degradation)”. Regarding `COc1cc(Nc2nc(N[C@H]3CCCC[C@H]3N)n3ccnc3c2C(N)=O)cc(OC)c1OCCOCCOCCOCC(=O)N[C@H](C(=O)N1C[C@H](O)C[C@H]1C(=O)NCc1ccc(-c2scnc2C)cc1)C(C)(C)C` [I-165], the “THP-1 24 h % IRAK4 Degradation” value is recorded as “C (<20% degradation)”. With `O=C1CCC(N2C(=O)c3cccc(NCCCOCCCNC(=O)[C@H]4CC[C@H](NC(=O)c5cnc(Nc6ccc7cnccc7n6)cc5NC5CC5)CC4)c3C2=O)C(=O)N1` (stereo partly drawn) [I-30, 6-((1,6-naphthyridin-2-yl)amino)-4-(cyclopropylamino)-N-((1R,4R)-4-((3-(3-((2-(2,6-dioxopiperidin-3-yl)-1,3-dioxoisoindolin-4-yl)amino)propoxy)propyl)carbamoyl)cyclohexyl)nicotinamide], the “THP-1 24 h % IRAK4 Degradation” value is “C (<20% degradation)”.

As for `O=C1CCC(N2C(=O)c3cccc(NCCOCCNC(=O)[C@H]4CC[C@H](NC(=O)c5cnc(Nc6ccc7cnccc7n6)cc5NC5CC5)CC4)c3C2=O)C(=O)N1` (stereo partly drawn) [I-25, 6-((1,6-naphthyridin-2-yl)amino)-4-(cyclopropylamino)-N-((1r,4r)-4-((2-(2-((2-(2,6-dioxopiperidin-3-yl)-1,3-dioxoisoindolin-4-yl)amino)ethoxy)ethyl)carbamoyl)cyclohexyl)nicotinamide], the “THP-1 24 h % IRAK4 Degradation” value is given as “B (>20-50% degradation)”.

Take `O=C(COc1cccc2c1C(=O)N(C1CCC(=O)NC1=O)C2=O)NCCCNC(=O)[C@H]1CC[C@H](NC(=O)c2cnc(Nc3ccc4cnccc4n3)cc2NC2CC2)CC1` (stereo partly drawn) [I-7]: the “THP-1 24 h % IRAK4 Degradation” value was “B (>20-50% degradation)”. Consider `O=C1CCC(N2C(=O)c3cccc(NCCOCCOCCOCCOCCOCC(F)CNC(=O)c4cnc(Nc5ccc6ncsc6c5)cc4NC4CC4)c3C2=O)C(=O)N1` (stereo not drawn) [I-52], for which the “THP-1 24 h % IRAK4 Degradation” value is “C (<20% degradation)”. Take `Cc1ncsc1-c1ccc(CNC(=O)[C@@H]2C[C@@H](O)CN2C(=O)[C@H](NC(=O)CCCCCCNC(=O)[C@H]2CC[C@H](NC(=O)c3cnc(Nc4ccc5cnccc5n4)cc3NC3CC3)CC2)C(C)(C)C)cc1` [I-10, 6-((1,6-naphthyridin-2-yl)amino)-4-(cyclopropylamino)-N-((1S,4r)-4-((7-(((S)-1-((2S,4R)-4-hydroxy-2-((4-(4-methylthiazol-5-yl)benzyl)carbamoyl)-pyrrolidin-1-yl)-3,3-dimethyl-1-oxobutan-2-yl)amino)-7-oxoheptyl)carbamoyl)cyclohexyl)-nicotinamide]: the “THP-1 24 h % IRAK4 Degradation” value is “C (<20% degradation)”. With `O=C1CCC(N2C(=O)c3cccc(NCCOCCOCCOCCOCC(F)CNC(=O)c4cnc(Nc5ccc6cnccc6n5)cc4NC4CC4)c3C2=O)C(=O)N1` (stereo not drawn) [I-50], the “THP-1 24 h % IRAK4 Degradation” value is on record as “B (>20-50% degradation)”. With `Cc1ncsc1-c1ccc(CNC(=O)[C@@H]2C[C@@H](O)CN2C(=O)[C@@H](NC(=O)COCCOCCOCC(F)CNC(=O)c2cnc(Nc3ccc4cnccc4n3)cc2NC2CC2)C(C)(C)C)cc1` (stereo partly drawn) [I-120], the “THP-1 24 h % IRAK4 Degradation” value is “C (<20% degradation)”. Under `COc1cc2c(cc1OCCOCCOCCOCCOCCOCC(=O)N[C@H](C(=O)N1C[C@H](O)C[C@H]1C(=O)NCc1ccc(-c3scnc3C)cc1)C(C)(C)C)ncc1c3ccc(C#N)cc3[nH]c21` [I-203] stands “B (>20-50% degradation)”; under `Cc1ncsc1-c1ccc(CNC(=O)C2C[C@@H](O)CN2C(=O)[C@@H](NC(=O)COCCOCCOC(C)C(F)CNC(=O)c2cnc(-n3ncc4cc(C#N)cnc43)cc2NC2CC2)C(C)(C)C)cc1` (stereo partly drawn) [I-122], “C (<20% degradation)”. Under `O=C(COc1cccc2c1C(=O)N(C1CCC(=O)NC1=O)C2=O)NCCOCCOCCOCCOCCOCC(F)CNC(=O)c1cnc(Nc2ccc3cnccc3n2)cc1NC1CC1` (stereo not drawn) [I-97] stands “B (>20-50% degradation)”. `O=C1CCC(N2C(=O)c3cccc(NCCOCCOCCOCCOCCNC(=O)[C@H]4CC[C@H](NC(=O)c5cnc(Nc6ccc7cnccc7n6)cc5NC5CC5)CC4)c3C2=O)C(=O)N1` (stereo partly drawn) [I-11]: the “THP-1 24 h % IRAK4 Degradation” value is recorded as “C (<20% degradation)”.

For `Cc1ncsc1-c1ccc(CNC(=O)[C@@H]2C[C@@H](O)CN2C(=O)[C@H](NC(=O)CCCCCCCCCCCNC(=O)[C@H]2CC[C@H](NC(=O)c3cnc(Nc4ccc5cnccc5n4)cc3NC3CC3)CC2)C(C)(C)C)cc1` [I-12], the “THP-1 24 h % IRAK4 Degradation” value is listed as “C (<20% degradation)”. For `Cc1ncsc1-c1ccc(CNC(=O)[C@@H]2C[C@@H](O)CN2C(=O)[C@@H](NC(=O)COCCOCCOCCOCCNC(=O)Cn2ccc3c(Nc4nc(N[C@@H]5CCCC[C@@H]5N)cc5[nH]cnc(=O)c45)cccc32)C(C)(C)C)cc1` [I-195, (2S,4R)-1-[(2S)-2-[2-[2-[2-[2-[2-[[2-[4-[[7-[[(1R,2S)-2-Aminocyclohexylamino]-4-oxo-3H-pyrido[4,3-d]pyrimidin-5-yl]amino]indol-1-yl]acetyl]amino]ethoxy]ethoxy]ethoxy]ethoxy]acetyl]amino]-3,3-dimethyl-butanoyl]-4-hydroxy-N-[[4-(4-methylthiazol-5-yl)phenyl]methyl]pyrrolidine-2-carboxamide], the “THP-1 24 h % IRAK4 Degradation” value is listed as “C (<20% degradation)”. The value for `O=C(COc1cccc2c1C(=O)N(C1CCC(=O)NC1=O)C2=O)NCCOCCOCCNC(=O)[C@H]1C[C@H](NC(=O)c2cnc(Nc3ccc4cnccc4n3)cc2NC2CC2)C1` (stereo partly drawn) [I-16] was “C (<20% degradation)”. `N#Cc1cnc(Nc2cc(NC3CC3)c(C(=O)NCC(F)COCCOCCOCCNc3cccc4c3C(=O)N(C3CCC(=O)NC3=O)C4=O)cn2)c(F)c1` (stereo not drawn) [I-58]: the “THP-1 24 h % IRAK4 Degradation” value is listed as “C (<20% degradation)”.
